Reference: US20150320773A1, “TREATMENT OF INFLAMMATION” (Vascular Biogenics Ltd., priority 2011, published 2015)

What was measured:
[1] = Plasma concentration of VB-201 (Liquid Chromatography-Tandem Mass Spectrometry); type: in vivo, mouse; details: oral
Method: In this model, injection of thioglycollate to the peritoneal cavity induces a “sterile” inflammatory response recruiting peripheral monocytes to the peritoneum, where they differentiate into macrophages (Li, Y. M., et al., J. Immunol. Methods. 1997; 201:183-188). […] Upon sacrifice, the number and identity of the cells accumulating in the peritoneum was determined by FACS, and plasma samples were taken for quantification by Liquid Chromatography-Tandem Mass Spectrometry. Three days after thioglycollate injection 95% of the cells in the peritoneum were macrophages (F4/80 positive, GR-1 negative cells) (FIG. 26B).

TLR5 = TLR5 (Homo sapiens, UniProt O60602); details: human monocytes; flagellin; 1.7, 8.5 or 17 μM
COX-1 = COX-1 (Homo sapiens, UniProt P23219); details: concentrations of up to 10 μM; data not shown
[2] = tested on: G-coupled protein receprors (GPRC); test: Selectivity: effect on activity of additional proteins
TNFα receptor = details: concentrations of up to 17 μM; data not shown
[3] = tested on: phosphorylation of Akt, MEK1/2, ERK1/2 and p38 in human monocytes; test: Chemokine-induced signaling in human monocytes, Western blot
Description: Untreated cells were used as reference for MCP-1 activation. Following treatment, cells were washed twice, harvested with lysis buffer and analyzed by SDS-PAGE. […] Alpha Tubulin levels serve as loading control.

TLR4 = TLR4 (Homo sapiens, UniProt O00206); details: human monocytes; LPS; 1.7, 8.5 or 17 μM
COX-2 = COX-2 (Homo sapiens, UniProt P35354); details: concentrations of up to 10 μM; data not shown
[4] = tested on: NIH-3T3 mouse fibroblasts; test: Wound-healing 'scratch' assay; type: cell-based; details: data not shown
[5] = target: TLR2:TLR1 dimer, TLR2:TLR6 dimer (Mus musculus, UniProt Q9QUN7); details: 1.7, 8.5 or 17 μM
human monocytes [6] = test: Cell viability assay (MTS) of human monocytes; type: cell-based; details: 16 hours, doses of 1-10 j±g/ml
THP-1 cells = test: Trans-well chemotaxis assay of THP-1 cells; type: cell-based, human
Method: For chemo-attraction of monocytes, RANTES (100 ng/ml), MIP-1α (50 ng/ml) or MCP-1 (50 ng/ml) were dissolved in 0.5% fetal bovine serum(FBS)/RPMI-1640 medium and placed at the lower chamber of QCM™ 24-well migration assay plate (Corning-Costar; 5 μm pores). For chemo-attraction of CD4+ cells, 0.5% FBS/RPMI-1640 solution containing RANTES (100 ng/ml) and SDF-1α (50 ng/ml) was used, using the same plate setting. Migration assay was conducted by seeding 300,000 treated cells in the upper chamber, followed by incubation of 3-4 hours. Subsequently, the number of cells which migrated to the medium in the lower compartment was determined by FACS.
Data are mean f SD from 4 experiments in triplicates, normalized to untreated cells. **, p<0.001.

human monocytes [7] = test: ROS formation in human monocytes (DCF, FACS); type: cell-based; details: overnight; VB-201 10 μg/ml, PGPC 10 μg/ml, OxPAPC 100 μg/ml; relative to PBS
Method: Detection of ROS was performed through FACS quantification of the oxidation product dichlorodihydrofluorescein (DCF). Data are mean±SD from 3-4 experiments performed in duplicates. FIG. 23B is a histogram from a representative experiment showing DCF levels in treated cells.

CD4+ T-cells = test: Chemotaxis assay of CD4+ T-cells; details: 5 μg/ml; RANTES (100 ng/ml) and SDF-1α (50 ng/ml)
Method: Human monocytes (CD14+ cells) and CD4+ T-cells were isolated from whole blood of healthy donors. Following PBMCs separation from whole blood using Ficoll-Paque and leucosep tubes (Greiner Bio-One), CD14+/CD4+ cells were separated using specific anti-CD14/anti-CD4 micro beads, respectively (Miltenyi Biotech). Purity of the isolated populations was validated using specific antibodies by FACS analysis. […] For chemo-attraction of monocytes, RANTES (100 ng/ml), MIP-1α (50 ng/ml) or MCP-1 (50 ng/ml) were dissolved in 0.5% fetal bovine serum(FBS)/RPMI-1640 medium and placed at the lower chamber of QCM™ 24-well migration assay plate (Corning-Costar; 5 μm pores). For chemo-attraction of CD4+ cells, 0.5% FBS/RPMI-1640 solution containing RANTES (100 ng/ml) and SDF-1α (50 ng/ml) was used, using the same plate setting. Migration assay was conducted by seeding 300,000 treated cells in the upper chamber, followed by incubation of 3-4 hours. Subsequently, the number of cells which migrated to the medium in the lower compartment was determined by FACS.

monocytes = test: Monocyte adhesion assay (TNFα-stimulated HUVEC); type: cell-based, human; details: 1-10 μg/ml VB-201; compared to the solvent control
Method: Matrix plates were pre-seeded with HUVEC and subjected to 4 hour stimulation with 10 ng/ml TNFα to induce expression of adhesion molecules. Freshly isolated monocytes were stained for 30 minutes with 5 µM calcein AM (Invitrogen) in serum free RPMI and then washed twice with PBS to remove excess dye. […] 10^5 stained monocytes were loaded per well into 96-well dishes and allowed to adhere for 15 minutes. Following 4 washes with PBS, adherent monocyte intensity was read using FLUOROSKAN Ascent FL device using excitation at 485 nm and emission at 538 nm.
Next, we examined whether VB-201 or oxidized PAPC treatment of monocytes affects their interaction with endothelial cells. HUVEC were plated in 96-wells and treated with TNFαc to induce expression of adhesion molecules. […] Following extensive washes, adherent monocytes were quantified by fluorescence.

granulocytes = test: Phagocytosis assay (whole blood), granulocytes; type: cell-based, human; details: VB-201 doses of 5 or 10 µg/ml
Method: Phagocytosis assays were conducted using pHrodo™ Phagocytosis Particle Labeling Kit (Invitrogen) according to the manufacturer protocol. […] Then, pHrodo dye-labeled E. coli bacteria were mixed with the treated blood samples, in 20:1 ratio of pHrodo™ particles to phagocytosing cells and incubated for additional 15 minutes. Each sample was analyzed both at 4° C. (no phagocytosis, negative control) and 37° C. Following incubation, red blood cells were removed by lysis and the samples were washed 3 times with wash buffer. For gating on specific subpopulations, cells were labeled with anti-CD14-FITC (monocytes and granulocytes marker, BD Biosciences) and anti-CD66b-PerCP/Cy5.5 (granulocytes marker, BioLegend) antibodies. pHrodo fluorescence intensity was analyzed by FACS.
To this end, a phagocytosis assay was performed on whole blood from healthy donors, and the capacity of leukocyte subsets to phagocytose PE-labeled E. Coli particles was tested in presence or absence of VB-201. As a negative control, we used blood without bacterial particles, while a positive control included blood and labeled-bacterial particles incubated at 37° C. Cells were then stained with CD14 and CD66b antibodies to differentiate between monocytes and granulocytes and were analyzed by FACS.

[8] = 5 μg/ml VB-201, MCP-1 and MCP-3-stimulated cells

Sequence of TLR2:TLR1 dimer, TLR2:TLR6 dimer (Q9QUN7 25-784): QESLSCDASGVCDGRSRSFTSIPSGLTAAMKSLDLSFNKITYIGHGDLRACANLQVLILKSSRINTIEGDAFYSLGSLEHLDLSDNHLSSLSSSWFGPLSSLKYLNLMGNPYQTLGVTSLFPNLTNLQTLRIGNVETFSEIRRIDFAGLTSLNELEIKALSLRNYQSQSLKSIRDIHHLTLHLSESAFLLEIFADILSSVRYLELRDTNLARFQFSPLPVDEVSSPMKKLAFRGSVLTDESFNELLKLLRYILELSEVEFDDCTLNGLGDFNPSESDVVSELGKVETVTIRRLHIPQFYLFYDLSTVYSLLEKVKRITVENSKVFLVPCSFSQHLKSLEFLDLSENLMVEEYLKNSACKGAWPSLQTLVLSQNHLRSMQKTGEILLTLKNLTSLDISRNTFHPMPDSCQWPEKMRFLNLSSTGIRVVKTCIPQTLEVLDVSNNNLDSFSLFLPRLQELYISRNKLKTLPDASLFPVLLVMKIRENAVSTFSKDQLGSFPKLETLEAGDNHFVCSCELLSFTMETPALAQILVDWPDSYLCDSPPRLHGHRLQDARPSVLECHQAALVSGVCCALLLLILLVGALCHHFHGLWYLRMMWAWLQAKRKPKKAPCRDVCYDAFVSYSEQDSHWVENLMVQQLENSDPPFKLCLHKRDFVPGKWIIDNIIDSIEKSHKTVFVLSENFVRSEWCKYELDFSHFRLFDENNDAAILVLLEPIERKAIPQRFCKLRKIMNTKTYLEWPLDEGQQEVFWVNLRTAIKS
Sequence of TLR4 (O00206 24-839): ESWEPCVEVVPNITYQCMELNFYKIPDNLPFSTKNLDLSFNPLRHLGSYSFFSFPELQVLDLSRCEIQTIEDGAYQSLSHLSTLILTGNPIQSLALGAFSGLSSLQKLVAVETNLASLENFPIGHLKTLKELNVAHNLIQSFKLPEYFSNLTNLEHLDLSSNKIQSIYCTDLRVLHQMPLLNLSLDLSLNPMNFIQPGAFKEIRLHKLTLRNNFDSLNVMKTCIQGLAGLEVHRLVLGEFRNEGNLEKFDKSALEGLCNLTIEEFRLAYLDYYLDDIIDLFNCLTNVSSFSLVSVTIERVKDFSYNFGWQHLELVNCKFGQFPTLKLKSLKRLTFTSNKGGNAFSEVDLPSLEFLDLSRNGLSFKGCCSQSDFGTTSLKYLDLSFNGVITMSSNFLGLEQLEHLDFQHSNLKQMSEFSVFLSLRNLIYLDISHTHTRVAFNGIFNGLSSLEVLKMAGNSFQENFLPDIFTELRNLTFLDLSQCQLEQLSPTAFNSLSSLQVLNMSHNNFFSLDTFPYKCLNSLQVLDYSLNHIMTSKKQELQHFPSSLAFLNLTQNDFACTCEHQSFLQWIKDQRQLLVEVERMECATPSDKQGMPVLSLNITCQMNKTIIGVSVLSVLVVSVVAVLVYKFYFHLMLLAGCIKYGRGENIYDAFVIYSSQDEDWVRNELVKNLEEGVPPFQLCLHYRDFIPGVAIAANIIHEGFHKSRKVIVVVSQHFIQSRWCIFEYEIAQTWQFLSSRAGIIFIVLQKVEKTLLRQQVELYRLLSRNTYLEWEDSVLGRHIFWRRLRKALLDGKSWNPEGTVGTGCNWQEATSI
Sequence of TLR4 (Q9Y6Y9 17-160 partner limits assumed): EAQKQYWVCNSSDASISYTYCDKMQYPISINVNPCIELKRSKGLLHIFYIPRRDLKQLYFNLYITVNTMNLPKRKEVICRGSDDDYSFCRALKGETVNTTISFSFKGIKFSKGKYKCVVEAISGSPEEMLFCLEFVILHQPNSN
Sequence of TLR5 (O60602 21-858): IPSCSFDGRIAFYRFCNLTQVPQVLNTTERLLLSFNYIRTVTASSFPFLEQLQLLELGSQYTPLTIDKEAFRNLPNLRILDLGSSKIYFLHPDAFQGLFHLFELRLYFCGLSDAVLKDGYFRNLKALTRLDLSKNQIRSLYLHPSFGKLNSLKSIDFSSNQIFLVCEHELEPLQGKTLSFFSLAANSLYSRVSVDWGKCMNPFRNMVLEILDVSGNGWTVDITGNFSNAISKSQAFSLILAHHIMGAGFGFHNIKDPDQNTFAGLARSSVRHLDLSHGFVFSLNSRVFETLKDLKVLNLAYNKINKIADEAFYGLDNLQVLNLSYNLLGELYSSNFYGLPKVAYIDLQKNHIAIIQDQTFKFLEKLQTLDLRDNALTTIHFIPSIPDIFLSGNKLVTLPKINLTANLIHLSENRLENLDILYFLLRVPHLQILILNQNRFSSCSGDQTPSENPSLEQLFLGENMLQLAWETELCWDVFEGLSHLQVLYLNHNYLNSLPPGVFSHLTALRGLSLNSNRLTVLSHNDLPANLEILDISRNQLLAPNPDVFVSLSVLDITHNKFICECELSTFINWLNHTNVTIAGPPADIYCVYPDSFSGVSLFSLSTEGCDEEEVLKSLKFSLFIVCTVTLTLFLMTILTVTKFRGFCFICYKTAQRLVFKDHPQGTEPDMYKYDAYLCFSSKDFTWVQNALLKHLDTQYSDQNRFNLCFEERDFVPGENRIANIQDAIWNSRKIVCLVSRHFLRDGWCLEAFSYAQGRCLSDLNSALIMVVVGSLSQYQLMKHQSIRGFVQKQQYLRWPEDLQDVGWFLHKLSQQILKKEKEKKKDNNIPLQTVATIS
Sequence of COX-2 (P35354 18-604): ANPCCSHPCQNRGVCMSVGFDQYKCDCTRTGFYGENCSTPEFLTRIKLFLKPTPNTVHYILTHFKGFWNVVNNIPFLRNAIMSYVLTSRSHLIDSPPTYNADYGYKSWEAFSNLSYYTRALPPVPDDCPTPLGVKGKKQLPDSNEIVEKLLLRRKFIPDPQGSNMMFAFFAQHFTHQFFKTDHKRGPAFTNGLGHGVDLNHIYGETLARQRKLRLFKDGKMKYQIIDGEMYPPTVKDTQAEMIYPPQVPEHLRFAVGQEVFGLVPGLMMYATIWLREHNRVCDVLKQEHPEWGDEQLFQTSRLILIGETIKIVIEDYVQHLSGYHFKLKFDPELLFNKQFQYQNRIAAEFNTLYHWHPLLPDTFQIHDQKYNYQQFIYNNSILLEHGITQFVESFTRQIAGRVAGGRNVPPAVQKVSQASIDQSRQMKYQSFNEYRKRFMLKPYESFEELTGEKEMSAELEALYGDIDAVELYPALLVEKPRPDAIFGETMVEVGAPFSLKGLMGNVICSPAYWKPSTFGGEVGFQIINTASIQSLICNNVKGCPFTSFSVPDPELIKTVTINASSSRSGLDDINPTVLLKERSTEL
Sequence of COX-1 (P23219 24-599): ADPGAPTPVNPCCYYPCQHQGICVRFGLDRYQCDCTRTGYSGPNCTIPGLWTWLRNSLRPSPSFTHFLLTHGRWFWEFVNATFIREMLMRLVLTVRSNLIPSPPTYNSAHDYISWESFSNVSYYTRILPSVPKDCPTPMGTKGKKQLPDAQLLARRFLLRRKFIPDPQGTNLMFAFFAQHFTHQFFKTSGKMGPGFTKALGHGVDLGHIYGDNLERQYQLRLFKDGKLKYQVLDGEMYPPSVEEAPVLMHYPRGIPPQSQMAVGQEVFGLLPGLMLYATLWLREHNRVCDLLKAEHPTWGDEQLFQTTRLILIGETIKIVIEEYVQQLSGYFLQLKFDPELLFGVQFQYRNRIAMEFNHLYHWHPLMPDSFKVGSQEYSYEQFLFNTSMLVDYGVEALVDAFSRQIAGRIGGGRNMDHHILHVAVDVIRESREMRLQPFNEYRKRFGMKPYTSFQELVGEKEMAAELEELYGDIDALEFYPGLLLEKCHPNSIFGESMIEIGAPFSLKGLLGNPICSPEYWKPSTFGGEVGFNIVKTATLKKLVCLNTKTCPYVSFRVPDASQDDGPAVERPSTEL

## CCCCCCCCCCCCCCCCOC[C@H](COP(=O)([O-])OCC[N+](C)(C)C)OCCCCC(=O)O [VB-201, (R)-1-hexadecyl-2-(4′-carboxyl)butyl-sn-glycero-3-phosphocholine]
[1]; 0.4 mg/kg
  VB-201 in mice plasma: 0.8 ± 0.3 µmol/L
[1]; 4 mg/kg
  VB-201 plasma level: 8.5 ± 1.5 µmol/L
TLR5
  activation of p38, ERK1/2 and the NFκB pathway following TLR5 activation: no apparent effect
COX-1
  inhibition of COX-1: No inhibition
[2]
  agonistic or antagonistic effect on G-coupled protein receprors (GPRC): no agonistic or antagonistic effect
TNFα receptor
  inhibition of TNFα receptor: No inhibition
[3]; 50 ng/ml RANTES
  ERK1/2 phosphorylation in stimulated monocytes: inhibited ERK1/2 phosphorylation
[3]; 5 μg/ml VB-201, Fractalkine-stimulated cells
  phosphorylation levels of ERK1/2: considerable reduction
[3]; [8]
  phosphorylation levels of Akt: considerable reduction
  phosphorylation levels of ERK1/2: considerable reduction
  phosphorylation levels of MEK1/2: considerable reduction
  phosphorylation levels of p38: but not in phosphorylation levels of p38
[3]; 8.5 μM VB-201 for 2, 5 or 15 min, 10 ng/ml MCP-1, 16 hrs
  ERK1/2 phosphorylation in monocytes pre-stimulated with MCP-1 overnight: reduction of ERK1/2 phosphorylation in starting at 5 min
TLR4
  activation of p38, ERK1/2 and the NFκB pathway following activation of TLR4: inhibited activation of p38, ERK1/2 and the NFκB pathway in a dose-dependent manner
COX-2
  inhibition of COX-2: No inhibition
[4]
  cell migration in wound-healing scratch assay: no effect on cell migration
[5]; mouse BMDCs, Pam3CSK4, PGN
  p38 phosphorylation following activation of dimers of TLR2: inhibited p^38 phosphorylation in a dose-dependent manner
[5]; mouse peritoneal macrophages, Pam3CSK4
  activation of p38, ERK1/2 and the NFκB pathway following activation of TLR2:TLR1 dimer: inhibited activation of p38, ERK1/2 and the NFκB pathway in a dose-dependent manner
Human monocytes [6]
  monocyte viability: no effect on monocyte viability
THP-1 cells; VB-201 8.5 μM
  effect of Wortmannin, Rapamycin and GW5074 on chemotaxis of THP-1 cells with added VB-201: further enhanced
THP-1 cells; pretreatment 30 minutes, 2 or 5 μg/ml
  in vitro migration of THP-1 cells: significantly inhibited in vitro migration of THP-1 cells in a dose-dependent manner
Human monocytes [7]
  ROS formation in human monocytes: no effect on ROS formation
CD4+ T-cells
  CD4 cell chemotaxis: unable to find any inhibition
monocytes
  monocyte adhesion to HUVEC: had no effect on their adhesion to HUVEC
granulocytes
  granulocyte phagocytosis: no VB-201 effect was seen
